Test results taken from ChEMBL document CHEMBL5380860, “Design, Synthesis, and Antitumor Activity of Potent and Selective EGFR L858R/T790M Inhibitors and Identification of a Combination Therapy to Overcome Acquired Resistance in Models of Non-small-cell Lung Cancer” (J Med Chem, 2023).
pIC50: −log10 of the molar value.

Experiments:
[1] = Cytotoxicity against human A549 cells harboring wild type EGFR assessed as reduction in cell viability measured after 72 hrs by MTT assay; format: toxicity, cell-based
[2] = Cytotoxicity against human A-431 cells harboring wild type EGFR assessed as reduction in cell viability measured after 72 hrs by MTT assay; format: toxicity, cell-based
NCI-H1975 = experiment: Antiproliferative activity against human NCI-H1975 cells harboring EGFR L858R/T790M mutant assessed as reduction in cell viability measured after 72 hrs by MTT assay; format: functional, cell-based; conditions: NCI-H1975, 72 h
HCC827 = experiment: Antiproliferative activity against human HCC827 cells harboring EGFR exon del 19 mutant assessed as reduction in cell viability measured after 72 hrs by MTT assay; format: functional, cell-based; conditions: HCC827, 72 h

Row | Structure (SMILES) | IC50 at 72 h [1] [µM] | IC50 at 72 h [2] [µM] | pIC50 (NCI-H1975) | pIC50 (HCC827)
1 | C=CC(=O)Nc1cccc(Nc2nc(Nc3ccc(N4CCN(C)CC4)cc3)nc3cc(OC)ccc23)c1 | > 10 | > 10 | 5.11 | 5.37
2 | C=CC(=O)Nc1cccc(Nc2nc(Nc3ccc(N4CCN(C)CC4)cc3)nc3ccc(OC)cc23)c1 | 3.99 | 4.82 | 5.53 | 5.75
3 | C=CC(=O)Nc1cccc(Nc2nc(Nc3ccc(N4CCN(C)CC4)cc3)nc3ccc(I)cc23)c1 | > 10 | > 10 | 5.24 | 5.34
4 | CN1CCN(c2ccc(Nc3nc(Nc4cccc(NC(=O)/C=C/c5ccccc5)c4)c4cc(Cl)ccc4n3)cc2)CC1 | > 10 | 3.22 | 5.64 | 6.00
5 | C=CC(=O)Nc1cccc(Nc2nc(Nc3ccc(N4CCN(C)CC4)cc3)nc3cccc(F)c23)c1 | 2.31 | 1.84 | 6.00 | 6.11
6 | C=CC(=O)Nc1cccc(Nc2nc(Nc3ccc(N4CCN(C)CC4)cc3)nc3ccc(C)cc23)c1 | 2.31 | 1.1 | 5.70 | 5.81
7 | C=CC(=O)Nc1cccc(Nc2nc(Nc3ccc(N4CCN(C)CC4)cc3)nc3c2CN(C(=O)OC(C)(C)C)CC3)c1 | > 10 | > 10 | 5.06 | 5.11
8 | C=CC(=O)Nc1cccc(Nc2nc(Nc3ccc(N4CCC(N(C)C)CC4)cc3OC)nc3ccc(Cl)cc23)c1 | 3.59 | 5.8 | 6.25 | 6.80
9 | C=CC(=O)Nc1cccc(Nc2nc(Nc3ccc(N4CCOCC4)cc3)nc3ccc(Cl)cc23)c1 | > 10 | > 10 | 5.07 | 5.05
10 | C=CC(=O)Nc1cccc(Nc2nc(Nc3ccc(N4CCN(C)CC4)cc3)nc3cccc(Cl)c23)c1 | 3.88 | 4.58 | 5.99 | 6.01
11 | C=CS(=O)(=O)Nc1cccc(Nc2nc(Nc3ccc(N4CCN(C)CC4)cc3)nc3ccc(Cl)cc23)c1 | > 10 | 8.77 | 5.99 | 5.83
12 | C=CC(=O)Nc1cccc(Nc2nc(Nc3ccc(N4CCN(C)CC4)cc3)nc3ccc([N+](=O)[O-])cc23)c1 | > 10 | > 10 | 5.20 | 5.43
13 | C=CC(=O)Nc1ccccc1Nc1nc(Nc2ccc(N3CCN(C)CC3)cc2)nc2ccc(Cl)cc12 | > 10 | > 10 | 5.88 | 5.99
14 | C=CC(=O)Nc1cccc(Nc2nc(Nc3ccc(N4CCN(C)CC4)cc3)nc3c(F)cccc23)c1 | > 10 | > 10 | 5.26 | 5.63
15 | C=CC(=O)Nc1cccc(Nc2nc(Nc3ccc(N4CCN(C)CC4)cc3)nc3cc(OC)c(OC)cc23)c1 | > 10 | > 10 | 5.38 | 5.37
16 | C=CC(=O)Nc1ccc(Nc2nc(Nc3ccc(N4CCN(C)CC4)cc3)nc3ccc(Cl)cc23)cc1 | > 10 | > 10 | 5.63 | 5.89
17 | C=CC(=O)Nc1cccc(Nc2nc(Nc3ccc(N4CCN(C)CC4)cc3)nc3ccccc23)c1 | 9.85 | 6.79 | 5.64 | 5.63
18 | C=CC(=O)Nc1cccc(Nc2nc(Nc3ccc(N4CCN(C)CC4)cc3)nc3c(Cl)cccc23)c1 | > 10 | > 10 | 5.25 | 5.33
19 | C=CC(=O)Nc1cccc(Nc2nc(Nc3ccc(N4CCC(N5CCOCC5)CC4)cc3)nc3ccc(Cl)cc23)c1 | > 10 | > 10 | 5.12 | 5.24
20 | C=CC(=O)Nc1cccc(Nc2nc(Nc3ccc(N4CCN(C)CC4)cc3)nc3cc(Cl)ccc23)c1 | 5.79 | 7.62 | 5.48 | 5.73
21 | C=CC(=O)Nc1cccc(Nc2nc(Nc3ccc(C4CCN(C)CC4)cc3)nc3ccc(F)cc23)c1 | 5.86 | > 10 | 5.96 | 5.73
22 | C=CC(=O)Nc1cccc(Nc2nc(Nc3ccc(N4CCN(C)CC4)cc3)nc3c2CCCC3)c1 | 5.64 | 4.56 | 5.47 | 5.64
23 | C=CC(=O)Nc1cccc(Nc2nc(Nc3ccc(N4CCC(N(C)C)CC4)cc3)nc3ccc(F)cc23)c1 | 1.26 | 1.84 | 6.78 | 7.25
24 | C=CC(=O)Nc1cccc(Nc2nc(Nc3ccc(N4CCC(N5CCN(C)CC5)CC4)cc3)nc3ccc(Cl)cc23)c1 | 2.1 | 1.62 | 7.55 | 7.60
25 | C=CC(=O)Nc1cccc(Nc2nc(Nc3ccc(N4CCN(C)CC4)c(F)c3)nc3ccc(Cl)cc23)c1 | 1.5 | 2.31 | 7.35 | 7.72

Row | Structure (SMILES) | IC50 at 72 h [1] [µM] | IC50 at 72 h [2] [µM] | pIC50 (NCI-H1975) | pIC50 (HCC827)
26 | C=CC(=O)Nc1cccc(Nc2nc(Nc3ccc(N4CCC(N5CCOCC5)CC4)cc3)nc3ccc(F)cc23)c1 | 5.9 | 7.59 | 5.80 | 5.64
27 | C/C=C/C(=O)Nc1cccc(Nc2nc(Nc3ccc(N4CCN(C)CC4)cc3)nc3ccc(Cl)cc23)c1 | 3.65 | 4.53 | 6.64 | 6.66
28 | C=CC(=O)Nc1cccc(Nc2nc(Nc3ccc(N4CCC(N5CCOCC5)CC4)cc3OC)nc3ccc(Cl)cc23)c1 | > 10 | > 10 | 5.28 | 5.34
29 | C=CC(=O)Nc1cccc(Nc2nc(Nc3ccc(N4CCC(N5CCN(C)CC5)CC4)cc3OC)nc3ccc(Cl)cc23)c1 | > 10 | 6.6 | 5.87 | 5.77
30 | CC(C)=CC(=O)Nc1cccc(Nc2nc(Nc3ccc(N4CCN(C)CC4)cc3)nc3ccc(Cl)cc23)c1 | 5.33 | 3.29 | 6.06 | 6.05
31 | C=CC(=O)Nc1cccc(Nc2nc(Nc3ccc(N4CCN(C)CC4)cc3OC)nc3ccc(F)cc23)c1 | 1.52 | 3.25 | 6.63 | 7.01
32 | C=CC(=O)Nc1cccc(Nc2nc(Nc3ccc(N4CCC(N5CCOCC5)CC4)cc3OC)nc3ccc(F)cc23)c1 | > 10 | > 10 | 5.33 | 5.41
33 | C=CC(=O)Nc1cccc(Nc2nc(Nc3ccc(N4CCN(C)CC4)cc3)nc3cc(F)ccc23)c1 | 7.81 | 9.04 | 5.63 | 5.98
34 | C=CC(=O)Nc1cccc(Nc2nc(Nc3ccc(N4CCOCC4)cc3)nc3ccc(F)cc23)c1 | 8.52 | > 10 | 5.70 | 5.86
35 | C=CC(=O)Nc1cccc(Nc2nc(Nc3ccc(N4CCN(C)CC4)c(F)c3)nc3ccc(F)cc23)c1 | 2.47 | 1.28 | 7.46 | 7.70
36 | C=CC(=O)Nc1cccc(Nc2nc(Nc3ccc(C4CCN(C)CC4)cc3)nc3ccc(Cl)cc23)c1 | > 10 | > 10 | 5.47 | 5.57
37 | C=CC(=O)Nc1cccc(Nc2nc(Nc3ccc(N4CCN(C)CC4)cc3)nc3ccc(C(F)(F)F)cc23)c1 | > 10 | 7.64 | 5.32 | 5.33
38 | C=CC(=O)Nc1cccc(Nc2nc(Nc3ccc(N4CCN(C)CC4)cc3OC)nc3ccc(Cl)cc23)c1 | 3.52 | 2.42 | 6.49 | 6.92
39 | C=CC(=O)Nc1cccc(Nc2nc(Nc3ccc(N(C)CCN(C)C)cc3)nc3ccc(F)cc23)c1 | 2.57 | 3.15 | 5.75 | 6.07
40 | C=CC(=O)Nc1cccc(Nc2nc(Nc3ccc(N4CCC(N(C)C)CC4)cc3OC)nc3ccc(F)cc23)c1 | > 10 | > 10 | 5.61 | 5.96
41 | C=CC(=O)Nc1cccc(Nc2nc(Nc3ccc(N4CCN(C)CC4)cc3)nc3ccc(Br)cc23)c1 | 8.71 | 5.42 | 5.58 | 5.72
42 | C=CC(=O)Nc1cccc(Nc2nc(Nc3ccc(N4CCN(C)CC4)cc3)nc3c2CCN(C(=O)OCc2ccccc2)C3)c1 | > 10 | > 10 | < 5.00 | < 5.00
43 | C=CC(=O)Nc1cccc(Nc2nc(Nc3ccc(N(C)CCN(C)C)cc3OC)nc3ccc(Cl)cc23)c1 | > 10 | > 10 | 5.16 | 5.22
44 | C=CC(=O)Nc1cccc(Nc2nc(Nc3ccc(N4CCC(N5CCN(C)CC5)CC4)cc3OC)nc3ccc(F)cc23)c1 | 8.95 | > 10 | 5.99 | 5.98
45 | C=CC(=O)Nc1cccc(Nc2nc(Nc3ccc(N4CCN(C)CC4)cc3)nc3c2CCN(C(=O)OC(C)(C)C)C3)c1 | > 10 | > 10 | < 5.00 | < 5.00
46 | C=CC(=O)Nc1cccc(Nc2nc(Nc3ccc(N4CCC(N5CCN(C)CC5)CC4)cc3)nc3ccc(F)cc23)c1 | 1.52 | 1.69 | 7.62 | 7.74
47 | CCC(=O)Nc1cccc(Nc2nc(Nc3ccc(N4CCN(C)CC4)cc3)nc3ccc(Cl)cc23)c1 | > 10 | > 10 | 5.14 | 5.19
48 | C=CC(=O)Nc1cccc(Nc2nc(Nc3ccc(N4CCC(N(C)C)CC4)cc3)nc3ccc(Cl)cc23)c1 | 1.83 | 2.02 | 6.76 | 7.19
49 | C=CC(=O)Nc1cccc(Nc2nc(Nc3ccc(N(C)CCN(C)C)cc3)nc3ccc(Cl)cc23)c1 | 2.3 | 2.89 | 5.91 | 6.02
